Reference: patent US4863969A, “Treatment of premalignant lesions and certain malignant tumors” (priority 1985, dated 1989)
Where two headings read alike, the source gives them in different places.

How the values were obtained:
[1] = tested on: chemically-induced breast tumors; assay: Prevention of chemically-induced (dimethyl-benz(a)anthracene) breast tumors in female rats; format: in vivo, female Sprague-Dawley rats; details: in feed, 11 weeks
Protocol: (A) The activity of compound Ia with respect to the prevention of chemically-induced breast tumors was determined according to the following procedure. Female Sprague-Dawley rats were used in this experiment. The experimental animals were kept under temperature-controlled and light-controlled conditions and had free access to drinking water and feed. At the age of 50 days 15 mg of dimethyl-benz(a)anthracene dissolved in arachis oil were administered to each rat by means of a probang. The treatment with compound Ia began 1 day after the administration of the carcinogen. The body weight of the experimental animals was recorded and the tumors were palpated weekly and measured with a vernier caliper. The volumes were calculated according to the formula D/2·d^2 in which D represents the larger diameter of the tumor ellipsoid and d represents the smaller diameter of the tumor ellipsoid. After 11 weeks the experiment was terminated and evaluated. In this experiment there were used in addition to 30 control animals, which received exclusively normal feed, the following three groups of experimental animals:
1. 33 rats to which were administered daily 30 mg/kg of compound Ia mixed with the feed.
2. 36 rats to which were administered daily 90 mg/kg of compound Ia mixed with the feed.
3. 33 rats to which were administered daily 270 mg/kg of compound Ia mixed with the feed.
The feed mixture was adjusted weekly according to the body weight and the total food intake.

[2] = tested on: transplantable chondrosarcoma of the rat; assay: Activity on the transplantable chondrosarcoma of the rat; format: in vivo, albino rats; details: 400 mg/kg p.o.
Protocol: (B) The activity of compond Ia on tumors was, furthermore, determined on the transplantable chondrosarcoma of the rat according to the following method. The solid tumor of a donor animal was finely minced and suspended in phosphate-buffered sodium chloride solution. 0.5 ml of the 30% tumor suspension was implanted subcutaneously into albino rats. […] Each treatment group embraced 7 rats. Suspensions of compound Ia in arachis oil were administered orally five times per week for 4 weeks. The tumor areas were determined on days 1, 15 and 29. The largest (D) and the smallest (d) diameter of the tumors were determined with the aid of a vernier caliper and the product D·d was determined. The change in this area size was calculated in percentages.

[3] = tested on: Prostate (mouse)/hyperplasia induced by methylcholanthrene; assay: Chemically-induced precancerous tissue changes in prostate gland organ culture (methylcholanthrene-induced hyperplasia); format: cell-based; details: read-out: Hyperplastic alveoli, relative to methylcholanthrene control; for activity at 1 µM: 10^-6 M; for activity at 0.1 µM: 10^-7 M; for activity at 0.01 µM: 10^-8 M; for activity at 0.001 µM: 10^-9 M
Protocol: (§1) (D) The activity of compound Ia on chemically-induced precancerous tissue changes was, furthermore, determined in vitro according to the following method. In this experiment prostate glands of mice and trachea of rats cultivated in organ cultures served as the experimental models. In tissues of organ cultures carcinogenic substances bring about after a short period precancerous changes in the form hyperplasias as well as metaplasias and dysplasias. Retinoids, which are administered simultaneously with the carcinogenic compounds or after these, prevent the hyperplasia or metaplasia and dysplasia or even cause these to regress.
(§2) The prostate glands consist of alveoli lined with one row of secretory cells and separated by a thin connective tissue. They were removed from mice aged 3-5 months and cut into lobules of approximately 1.5×1.5×2.0 mm. At least six of these lobules were placed on filter paper and transferred on a metal lattice into small culture chambers. Two of these culture chambers were enclosed in a Petri dish lined with a moist filter paper. The culture chambers were filled with nutrient medium up to the height of the lattice so that the explants were moistened well with the nutrient medium, but were not immersed in this. At the nutrient medium there was used customary Medium 199 supplemented by the addition of 15% serum from newly born calves. The carcinogen (3-methylcholanthrene) was added to this prior to the incubation in a concentration of 4-5 μg/ml of nutrient medium. The cultures were then incubated at 37.5° C. During the incubation they were kept in a Macintosh flask which was gassed with a mixture of 5% CO2 +95% oxygen. In a first series of experiments the carcinogen and compound Ia were combined and the tissue was cultivated for 10-12 days. In a second series the explants were pre-treated with the carcinogen for 10-12 days and thereafter placed in a nutrient medium, which only contained compound Ia, for 4-7 days. The concentration of compound Ia lay in the range of 10^-9 to 10^-6 Mol.
The activity of compound Ia is quantified by counting the normal and hyperplastic alveoli in sections of the explant. The results are expressed in percentages of hyperplastic alveoli of the total number of alveoli, for example 120 hyperplastic alveoli out of a total of 200 correspond to 60%. In explants treated with retinoids the percentage is usually small. […] The percentage of hyperplastic alveoli is reduced to 20/60=33%.

[4] = tested on: Trachea (rats)/hyperplasia induced by dimethylbenzanthracene; assay: Chemically-induced precancerous tissue changes in trachea organ culture (dimethylbenzanthracene-induced hyperplasia); format: cell-based; details: Rattus norvegicus, read-out: Mitotic index, relative to dimethylbenzanthracene control; for activity at 1 µM: 10^-6 M; for activity at 0.1 µM: 10^-7 M; for activity at 0.01 µM: 10^-8 M; for activity at 0.001 µM: 10^-9 M
Protocol: as §1, §2
Trachea of rats are cultivated in the same manner and treated with dimethylbenzanthracene as the carcinogen. The mitotic index serves as the parameter of the hyperplasia. With retinoid the mitotic index and the hyperplasias, respectively, are smaller. The results are compiled in Tables IV (prostate) and V (trachea).

[5] = cited from earlier work
[6] = simultaneous treatment, methylcholanthrene (47% hyperplastic alveoli) = 100%
[7] = subsequent treatment, methylcholanthrene (65% hyperplastic alveoli) = 100%
[8] = simultaneous treatment, dimethylbenzanthracene (mitotic index 2.6) = 100%
[9] = subsequent treatment, dimethylbenzanthracene (mitotic index 3.1) = 100%

**Q.** Which results are given for `C/C(=C\c1ccccc1)c1ccc2c(c1)C(C)(C)CCC2(C)C` [Compound Ia, 1,2,3,4-tetrahydro-1,1,4,4-tetramethyl-6-[(E)-alpha-methylstyryl]naphthalene]?
**A.** % tumor-bearing rats ([1]; 30 mg/kg daily oral): 69.6%; Average number of tumors per rat ([1]; 30 mg/kg daily oral): 3.0; Average tumor volume per rat in mm^3 ([1]; 30 mg/kg daily oral): 4904 mm^3; % tumor-bearing rats, relative to control (100%) ([1]; 30 mg/kg daily oral): 88%; Average number of tumors per rat, relative to control (100%) ([1]; 30 mg/kg daily oral): 81%; Average tumor volume per rat, relative to control (100%) ([1]; 30 mg/kg daily oral): 77%; % tumor-bearing rats ([1]; 90 mg/kg daily oral): 63.8%; Average number of tumors per rat ([1]; 90 mg/kg daily oral): 1.8; Average tumor volume per rat in mm^3 ([1]; 90 mg/kg daily oral): 2879 mm^3; % tumor-bearing rats, relative to control (100%) ([1]; 90 mg/kg daily oral): 80%; Average number of tumors per rat, relative to control (100%) ([1]; 90 mg/kg daily oral): 48%; Average tumor volume per rat, relative to control (100%) ([1]; 90 mg/kg daily oral): 45%; % tumor-bearing rats ([1]; 270 mg/kg daily oral): 39.3%; Average number of tumors per rat ([1]; 270 mg/kg daily oral): 0.7; Average tumor volume per rat in mm^3 ([1]; 270 mg/kg daily oral): 543 mm^3; % tumor-bearing rats, relative to control (100%) ([1]; 270 mg/kg daily oral): 50%; Average number of tumors per rat, relative to control (100%) ([1]; 270 mg/kg daily oral): 18%; Average tumor volume per rat, relative to control (100%) ([1]; 270 mg/kg daily oral): 9%; Tumor area in mm^2, Day 29 ([2]; five times per week for 4 weeks, Day 29 (control 5926)): 1694 mm^2; Change in tumor area, Day 29 ([2]; five times per week for 4 weeks, Day 29 vs Day 1 (control +394%)): +30%; Tumor area in mm^2, Day 1 ([2]; five times per week, Day 1): 1300 mm^2; Tumor area in mm^2, Day 15 after the commencement of treatment ([2]; five times per week, Day 15 (control 2880)): 1416 mm^2; Change in tumor area, Day 15 ([2]; five times per week, Day 15 vs Day 1 (control +140%)): +9%; activity at 1 µM [3, 6]: 25%; activity at 0.1 µM [3, 6]: 46%; activity at 0.01 µM [3, 6]: 60%; activity at 0.001 µM [3, 6]: 90%; activity at 1 µM [3, 7]: 54%; activity at 0.1 µM [3, 7]: 94%; activity at 0.01 µM [3, 7]: 98%; activity at 0.001 µM [3, 7]: 100%; activity at 1 µM [4, 8]: 54%; activity at 0.1 µM [4, 8]: 46%; activity at 0.01 µM [4, 8]: 46%; activity at 0.001 µM [4, 8]: 104%; activity at 1 µM [4, 9]: 45%; activity at 0.1 µM [4, 9]: 70%; activity at 0.01 µM [4, 9]: 74%; activity at 0.001 µM [4, 9]: 75%; Hypervitaminosis A phenomena ([5]; e.g. manifestations on skin and mucous membranes): does not exhibit, in particular, any hypervitaminosis A phenomena; Tolerability / toxic symptoms ([5]; in the therapeutically indicated dosages): well tolerated and that no toxic symptoms appear; Teratogenicity ([5]; in vivo): non-teratogenic; Skin irritation ([5]; skin): not irritating to the skin
